Converted amounts (≈) assume the structure as drawn. Like-named read-outs stand apart in the source and are kept apart here.
Experiments:
[1] = system: S. aureus MR5867 one-step mutant; assay: MIC against stepwise QRDR mutants; assay type: cell-based; conditions: Staphylococcus aureus
Method: (§1) The strains used for this test example are available from the inventors of the present invention.
(§2) Then, the cell suspension was diluted 500 times with CAMHB mentioned above.

[2] = system: S. aureus MS5952 one-step mutant; assay: MIC against stepwise QRDR mutants; assay type: cell-based; conditions: Staphylococcus aureus
Method: as §1, §2

E. faecalis 36-15747 = assay: MIC against Enterococcus bacteria; assay type: cell-based; conditions: 3615747, ParC 80Ile
Method: (§3) Antibacterial activities of the compound J-131CP against Enterococcus bacteria (Enterococcus faecium and Enterococcus faecalis) were examined by the following methods.
(§4) The compound J-131CP and quinolones were prepared in the same manner as that of Test Example 1-1.
(§5) Cell suspensions were prepared in the same manner as that of Test Example 1-1 described in the section of measurement of MIC in Test Example 1-1, except that the Enterococcus bacterium strains mentioned in Table 8 were used instead of Staphylococcus aureus, and MICs of the compound J-131CP and quinolones as control were determined for the strains in the same manner as that of Test Example 1-1 described in the section of measurement of MIC in Test Example 1-1. In Table 8, the amino acid substitution mutations in QRDR of the strains are underlined.

E. faecalis NCTC12201 = assay: MIC against Enterococcus bacteria; assay type: cell-based; conditions: Enterococcus faecalis, NCTC 12201 / VRE, quinolone-susceptible
Method: as §3, §4, §5

E. faecalis NCTC12203 = assay: MIC against Enterococcus bacteria; assay type: cell-based; conditions: NCTC 12203 / VRE
Method: as §3, §4, §5

E. faecium NCTC12204 = assay: MIC against Enterococcus bacteria; assay type: cell-based; conditions: NCTC 12204 / VRE
Method: as §3, §4, §5

E. faecium RPR10 = assay: MIC against Enterococcus bacteria; assay type: cell-based
Method: as §3, §4, §5

S. pneumoniae BCLSP16 = assay: MIC against pneumococcus, CAMHB with 5 mass % LHB; assay type: cell-based; conditions: Streptococcus pneumoniae
From the text: (§6) Antibacterial activity of the compound J-131CP against pneumococcus (Streptococcus pneumoniae) was examined by the following method. The S. pneumoniae strains used for this test belong to any one of the categories of penicillin-susceptible pneumococcus (penicillin-susceptible Streptococcus pneumoniae, PSSP), penicillin-intermediate pneumococcus (penicillin-intermediate Streptococcus pneumoniae, PISP), and penicillin-resistant pneumococcus (penicillin-resistant Streptococcus pneumoniae, PRSP).
(§7) The compound J-131CP and quinolones were prepared in the same manner as that of Test Example 1-1, except that CAMHB containing 5 mass % of lysed horse blood (LHB) was used for the dilution instead of CAMHB. The lysed horse blood was prepared by adding sterilized water to horse sterile defibered blood (produced by Nippon Bio-Supp. Center) at a ratio of 1:1, subjecting the mixture to freezing and thawing 5 times, then centrifuging the mixture twice at 10,000 rpm for 20 minutes, and filtering the supernatant through a filter.
(§8) The S. pneumoniae strains mentioned in Table 11 were each cultured overnight at 37° C. on a blood agar medium as stationary culture. The blood agar medium was prepared by adding 5 mass % ovine sterile defibered blood (produced by Nippon Bio-Supp. Center) to a heart infusion agar medium (produced by EIKEN CHEMICAL). Each S. pneumoniae strain cultured overnight at 37° C. as stationary culture was further subcultured overnight at 37° C. on fresh blood agar medium as stationary culture. After completion of the culture, cells of each pneumococcus strain were collected with a swab, and suspended in physiological saline, and the suspension was adjusted with physiological saline to show absorbance of 0.08 to 0.13 at 625 nm as measured with an absorbance meter (produced by Amersham), and further diluted 200 times with CAMHB containing 5 mass % LHB.
(§9) CAMHB containing the compound J-131CP at each concentration or each quinolone at each concentration, and 5 mass % LHB was added to each well of a 96-well plate in a volume of 50 μL/well, each cell suspension diluted 200 times was added to the well in a volume of 50 μL/well, and stationary culture was carried out overnight at 37° C.
(§10) After completion of the culture, whether the bacterium proliferated or not was determined on the basis of visually observed turbidity of the culture in the well, and MIC values (mg/L) of the compound J-131CP and the quinolones for the strains were determined. In Table 11, the amino acid substitution mutations in QRDR of the strains are underlined.

S. pneumoniae JHSP11 = assay: MIC against pneumococcus, CAMHB with 5 mass % LHB; assay type: cell-based; conditions: Streptococcus pneumoniae
From the text: as §6, §7, §8, §9, §10

S. pneumoniae KBSP04 = assay: MIC against pneumococcus, CAMHB with 5 mass % LHB; assay type: cell-based; conditions: Streptococcus pneumoniae
From the text: as §6, §7, §8, §9, §10

S. pneumoniae BCLSP37 = assay: MIC against pneumococcus, CAMHB with 5 mass % LHB; assay type: cell-based, Streptococcus pneumoniae; conditions: Streptococcus pneumoniae, BCLSP37, S. pneumoniae BCLSP37, PSSP, quinolone-resistant; ParC 79Phe, GyrA 85Lys; read-out: MIC
Method: (§11) The S. pneumoniae strains used for this test belong to any one of the categories of penicillin-susceptible pneumococcus (penicillin-susceptible Streptococcus pneumoniae, PSSP), penicillin-intermediate pneumococcus (penicillin-intermediate Streptococcus pneumoniae, PISP), and penicillin-resistant pneumococcus (penicillin-resistant Streptococcus pneumoniae, PRSP).
(§12) The lysed horse blood was prepared by adding sterilized water to horse sterile defibered blood (produced by Nippon Bio-Supp. Center) at a ratio of 1:1, subjecting the mixture to freezing and thawing 5 times, then centrifuging the mixture twice at 10,000 rpm for 20 minutes, and filtering the supernatant through a filter.
as §8
(§13) In Table 11, the amino acid substitution mutations in QRDR of the strains are underlined.

S. pneumoniae KBSP11 = assay: MIC against pneumococcus, CAMHB with 5 mass % LHB; assay type: cell-based, Streptococcus pneumoniae; conditions: Streptococcus pneumoniae
Method: as §11, §12, §8, §13

[3] = E. faecalis NCTC12203, VRE, read-out: MIC
[4] = E. faecium NCTC12204, VRE, read-out: MIC
[5] = S. pneumoniae KBSP04, PISP, read-out: MIC
[6] = S. pneumoniae KBSP11, PRSP, quinolone-susceptible, read-out: MIC
[7] = E. faecium RPR10, read-out: MIC

| SMILES | MIC [1] [µg/mL] | MIC [2] [µg/mL] | MIC (E. faecalis 36-15747) [µg/mL] | MIC (E. faecalis NCTC12201) [µg/mL] | MIC (E. faecalis NCTC12203) [µg/mL] | MIC (E. faecium NCTC12204) [µg/mL] | MIC (E. faecium RPR10; RPR10) [µg/mL] | MIC (S. pneumoniae BCLSP16; BCLSP16) [µg/mL] | MIC (S. pneumoniae JHSP11) [µg/mL] | MIC (S. pneumoniae KBSP04; KBSP04) [µg/mL] | MIC (S. pneumoniae BCLSP37) [µg/mL] | MIC (S. pneumoniae KBSP11; PRSP) [µg/mL] | MIC (E. faecalis NCTC12203; [3]) [µg/mL] | MIC (E. faecium NCTC12204; [4]) [µg/mL] | MIC (S. pneumoniae BCLSP16; S. pneumoniae BCLSP16, PSSP, ParC 79Tyr, GyrA 81Phe, read-out: MIC) [µg/mL] | MIC (S. pneumoniae KBSP04; [5]) [µg/mL] | MIC (S. pneumoniae KBSP11; [6]) [µg/mL] | MIC (E. faecalis NCTC12201; read-out: MIC) [µg/mL] | MIC (E. faecium RPR10; [7]) [µg/mL] |
| --- | --- | --- | --- | --- | --- | --- | --- | --- | --- | --- | --- | --- | --- | --- | --- | --- | --- | --- | --- |
| O=c1cc(CO)c2cc(F)c(-c3ccc(O)cc3)cc2n1C1CC1 [J-131CP, 1-cyclopropyl-6-fluoro-4-(hydroxymethyl)-7-(4-hydroxyphenyl)-1,2-dihydroquinolin-2-one] | 0.25 (≈ 0.768 µM) | 0.25 (≈ 0.768 µM) | 0.5 (≈ 1.54 µM) | 0.5 (≈ 1.54 µM) | 2 (≈ 6.15 µM) | 8 (≈ 24.6 µM) | 4 (≈ 12.3 µM) | 4 (≈ 12.3 µM) | 4 (≈ 12.3 µM) | 4 (≈ 12.3 µM) | 4 (≈ 12.3 µM) | 2 (≈ 6.15 µM) | – | – | – | – | – | – | – |
| O=C(O)c1cn(C2CC2)c2cc(N3CCNCC3)c(F)cc2c1=O [CIP, ciprofloxacin] | – | – | 2 (≈ 6.04 µM) | – | – | – | – | – | > 32 | – | > 32 | – | 4 (≈ 12.1 µM) | 4 (≈ 12.1 µM) | > 32 | 0.5 (≈ 1.51 µM) | 0.5 (≈ 1.51 µM) | – | – |
| CCn1cc(C(=O)O)c(=O)c2cc(F)c(N3CCNCC3)cc21 [NOR, norfloxacin] | 16 (≈ 50.1 µM) | 16 (≈ 50.1 µM) | 16 (≈ 50.1 µM) | – | – | – | – | > 128 | 128 (≈ 401 µM) | – | 64 (≈ 200 µM) | – | 4 (≈ 12.5 µM) | 4 (≈ 12.5 µM) | – | 4 (≈ 12.5 µM) | 4 (≈ 12.5 µM) | 2 (≈ 6.26 µM) | 2 (≈ 6.26 µM) |
| C[C@H]1COc2c(N3CCN(C)CC3)c(F)cc3c(=O)c(C(=O)O)cn1c23 [LVX, levofloxacin] | 1 (≈ 2.77 µM) | 0.5 (≈ 1.38 µM) | 2 (≈ 5.53 µM) | – | – | – | – | 32 (≈ 88.6 µM) | 64 (≈ 177 µM) | – | 32 (≈ 88.6 µM) | – | 2 (≈ 5.53 µM) | 2 (≈ 5.53 µM) | – | 2 (≈ 5.53 µM) | 1 (≈ 2.77 µM) | 1 (≈ 2.77 µM) | 1 (≈ 2.77 µM) |
| CC1COc2c(N3CCN(C)CC3)c(F)cc3c(=O)c(C(=O)O)cn1c23 (centres unmarked) [OFX, ofloxacin] | 1 (≈ 2.77 µM) | 1 (≈ 2.77 µM) | 4 (≈ 11.1 µM) | – | – | – | – | 16 (≈ 44.3 µM) | 8 (≈ 22.1 µM) | – | 32 (≈ 88.6 µM) | – | 4 (≈ 11.1 µM) | 4 (≈ 11.1 µM) | – | 0.5 (≈ 1.38 µM) | 0.5 (≈ 1.38 µM) | 2 (≈ 5.53 µM) | 2 (≈ 5.53 µM) |
| NC1CCN(c2nc3c(cc2F)c(=O)c(C(=O)O)cn3-c2ccc(F)cc2F)C1 (centres unmarked) [TSX, tosufloxacin] | 0.25 (≈ 0.618 µM) | 2 (≈ 4.95 µM) | 2 (≈ 4.95 µM) | – | – | – | – | 8 (≈ 19.8 µM) | 8 (≈ 19.8 µM) | 0.125 (≈ 0.309 µM) | 16 (≈ 39.6 µM) | 0.125 (≈ 0.309 µM) | 4 (≈ 9.89 µM) | 4 (≈ 9.89 µM) | – | – | – | 0.25 (≈ 0.618 µM) | 4 (≈ 9.89 µM) |
| C[C@@H]1CN(c2c(F)c(N)c3c(=O)c(C(=O)O)cn(C4CC4)c3c2F)C[C@H](C)N1 [SPX, sparfloxacin] | < 0.06 | 8 (≈ 20.4 µM) | 0.5 (≈ 1.27 µM) | – | – | – | – | 16 (≈ 40.8 µM) | > 32 | 0.125 (≈ 0.319 µM) | > 32 | – | 1 (≈ 2.55 µM) | 1 (≈ 2.55 µM) | – | – | 0.25 (≈ 0.637 µM) | 0.5 (≈ 1.27 µM) | 0.13 (≈ 0.331 µM) |

From patent US20160257651A1, “NOVEL COMPOUND WITH ANTIBACTERIAL ACTIVITY” (priority 2013, published 2016)
